Measurements taken from US20100273876A1, “ANTIBACTERIAL FORMULATION COMPRISING A DIALKYL SULPHOSUCCINATE AND A CARBANILIDE ANTIBACTERIAL AGENT” (priority 2007, published 2010).
In brackets after ≈: the same amount, converted by molar mass. Where two headings read alike, the source gives them in different places.

Legend:
P. acnes NCTC 737 = assay: Minimum bactericidal concentration (MBC) assay; assay type: cell-based, Propionibacterium acnes
Protocol: The propionibacteria were cultured and maintained on Wilkins-Chalgren Anaerobe Medium (agar and broth) at pH 6.0; all cultures were incubated anaerobically at 37° C. for 72 hours. This assay, normally carried out after an MIC assay, determines the rnininiurn concentration of a compound that is lethal to the micro-organism being tested. […] These samples were then individually sub-cultured on antibiotic-free agar medium, under the incubation conditions described above. Following incubation they were examined visually for microbial growth.

P. granulosum NCTC 11865 = assay: (S)DDA disc diffusion; assay type: cell-based, Propionibacterium granulosum
Protocol: (§1) The propionibacteria were cultured and maintained on Wilkins-Chalgren Anaerobe Medium (agar and broth) at pH 6.0; all cultures were incubated anaerobically at 37° C. for 72 hours.
(§2) A sterile paper disc was impregnated with a sample of the test compound in a suitable solvent and 30 minutes allowed for the solvents to evaporate (where possible). The disc was then placed on an agar plate onto which the test micro-organism had been inoculated. The plate was then incubated under the conditions described above, following which it was examined visually for signs of microbial growth. If the test compound had antimicrobial activity, a circular zone of no growth would be obtained around the disc. The diameter of this zone of “inhibition” was measured using a ProtoCOL™ automated zone sizer (Synbiosis, Cambridge, UK). In general, a greater diameter and/or area of the zone of inhibition indicates a greater antimicrobial activity in the relevant test compound, although other factors such as test compound mobility through the agar gel may also influence the result.
(§3) Two test a compounds A and B were placed on a single paper disc and the above described DDA procedure repeated. An increase in diameter of the zone of inhibition, compared to the greater of the zone diameters for the two compounds individually, was taken to indicate potential antimicrobial synergy. In practical terms, an increase of greater than 5 mm could be treated as significant.
(§4) Both the DDA and the SDDA test may be carried out using an agar gel supplemented with lipid and/or salt to simulate some of the major components present in human skin and to assess whether these substances might reduce the antimicrobial activity observed for the test compound. Performance under these conditions can provide a more reliable indication of activity on topical application. The supplements used in Examples 1, 11, 12 and 13 below were lipid (either Tween™ 80 at 1% v/v (Example 1) or triolein at 1% v/v (Examples 11, 12 and 13) and sodium chloride (100 mM).

P. granulosum PRP-005 = assay: (S)DDA disc diffusion; assay type: cell-based, Propionibacterium granulosum
Protocol: as §1, §2, §3, §4

P. granulosum PRP-006 = assay: (S)DDA disc diffusion; assay type: cell-based, Propionibacterium granulosum
Protocol: as §1, §2, §3, §4

P. granulosum PRP-019 = assay: (S)DDA disc diffusion; assay type: cell-based, Propionibacterium granulosum
Protocol: as §1, §2, §3, §4

P. granulosum PRP-021 = assay: (S)DDA disc diffusion; assay type: cell-based, Propionibacterium granulosum
Protocol: as §1, §2, §3, §4

P. granulosum PRP-043 = assay: (S)DDA disc diffusion; assay type: cell-based, Propionibacterium granulosum
Protocol: as §1, §2, §3, §4

P. granulosum PRP-044 = assay: (S)DDA disc diffusion; assay type: cell-based, Propionibacterium granulosum
Protocol: as §1, §2, §3, §4

P. granulosum PRP-055 = assay: (S)DDA disc diffusion; assay type: cell-based, Propionibacterium granulosum
Protocol: as §1, §2, §3, §4

C. striatum NCTC 764 = assay: (S)DDA disc diffusion; assay type: cell-based, Corynebacterium striatum; conditions: for DDA: 200 μg per disc
Protocol: (§5) Several Corynebacterium test species were also used in this study, namely C. mucifaciens ATCC 700355, C. striatum NCTC 764, C. xerosis NCTC 11861 and C. jeikeium NCTC 11915. These Gram-positive pathogens are closely related to organisms (aerobic diphtheroids of the genus Corynebacterium) that cause body odour. C. mucifaciens and C. striatum were cultured and maintained on Mueller-Hinton Medium (agar and broth) and were incubated aerobically at 37° C. for 24 hours. C. xerosis and C. jeikeium were cultured and maintained on Mueller-Hinton Medium containing 5% (v/v) lysed horse blood (agar and broth) and were incubated aerobically at 37° C. for 72 hours. A sterile paper disc was impregnated with a sample of the test compound in a suitable solvent and 30 minutes allowed for the solvents to evaporate (where possible). The disc was then placed on an agar plate onto which the test micro-organism had been inoculated. The plate was then incubated under the conditions described above, following which it was examined visually for signs of microbial growth. If the test compound had antimicrobial activity, a circular zone of no growth would be obtained around the disc. The diameter of this zone of “inhibition” was measured using a ProtoCOL™ automated zone sizer (Synbiosis, Cambridge, UK). In general, a greater diameter and/or area of the zone of inhibition indicates a greater antimicrobial activity in the relevant test compound, although other factors such as test compound mobility through the agar gel may also influence the result. Two test a compounds A and B were placed on a single paper disc and the above described DDA procedure repeated. An increase in diameter of the zone of inhibition, compared to the greater of the zone diameters for the two compounds individually, was taken to indicate potential antimicrobial synergy. In practical terms, an increase of greater than 5 mm could be treated as significant. The activities of DOSS and TCC were determined, using (S)DDAs, against the test organisms C. mucifaciens ATCC 700355, C. striatum NCTC 764, C. xerosis NCTC 11861 and C. jeikeium NCTC 11915. 200 μg of the DOSS and/or the TCC were loaded onto each disc. All the experiments were conducted in triplicate.

C. jeikeium NCTC 11915 = assay: (S)DDA disc diffusion; assay type: cell-based, Corynebacterium jeikeium; conditions: for DDA: 200 μg per disc
Protocol: as §5

[1] = P. granulosum NCTC 11865 (resistance None), 200 μg TCC or 50 μg DOSS per disc
[2] = P. granulosum PRP-005 (MLSK), 200 μg TCC or 50 μg DOSS per disc
[3] = P. granulosum PRP-006 (MLS), 200 μg TCC or 50 μg DOSS per disc
[4] = P. granulosum PRP-019 (MLSK), 200 μg TCC or 50 μg DOSS per disc
[5] = P. granulosum PRP-021 (MLS), 200 μg TCC or 50 μg DOSS per disc
[6] = P. granulosum PRP-043 (MLS), 200 μg TCC or 50 μg DOSS per disc
[7] = P. granulosum PRP-044 (MLS), 200 μg TCC or 50 μg DOSS per disc
[8] = P. granulosum PRP-055 (resistance None), 200 μg TCC or 50 μg DOSS per disc
[9] = 200 μg DOSS + 200 μg TCC on one disc

dioctyl sodium sulphosuccinate [DOSS]
MBC (P. acnes NCTC 737): 62.5 µg/mL | MIC/MBC ratio (P. acnes NCTC 737): 0.25 | DDA (P. granulosum NCTC 11865; [1]): 14.70 mm | DDA (P. granulosum NCTC 11865; P. granulosum NCTC 11865, 200 μg per disc): 39.84 mm | DDA + salt (P. granulosum NCTC 11865; P. granulosum NCTC 11865, 200 μg per disc, sodium chloride 100 mM): 37.98 mm | DDA + lipid (P. granulosum NCTC 11865; P. granulosum NCTC 11865, 200 μg per disc, triolein 1% v/v): 38.60 mm | DDA (P. granulosum PRP-005; [2]): 26.31 mm | DDA (P. granulosum PRP-005; P. granulosum PRP-005, 200 μg per disc): 42.96 mm | DDA + salt (P. granulosum PRP-005; P. granulosum PRP-005, 200 μg per disc, sodium chloride 100 mM): 46.38 mm | DDA + lipid (P. granulosum PRP-005; P. granulosum PRP-005, 200 μg per disc, triolein 1% v/v): 40.47 mm | DDA (P. granulosum PRP-006; [3]): 19.01 mm | DDA (P. granulosum PRP-006; P. granulosum PRP-006, 200 μg per disc): 40.47 mm | DDA + salt (P. granulosum PRP-006; P. granulosum PRP-006, 200 μg per disc, sodium chloride 100 mM): 41.09 mm | DDA + lipid (P. granulosum PRP-006; P. granulosum PRP-006, 200 μg per disc, triolein 1% v/v): 40.16 mm | DDA (P. granulosum PRP-019; [4]): 19.94 mm | DDA (P. granulosum PRP-019; P. granulosum PRP-019, 200 μg per disc): 41.71 mm | DDA + salt (P. granulosum PRP-019; P. granulosum PRP-019, 200 μg per disc, sodium chloride 100 mM): 42.02 mm | DDA + lipid (P. granulosum PRP-019; P. granulosum PRP-019, 200 μg per disc, triolein 1% v/v): 42.65 mm | DDA (P. granulosum PRP-021; [5]): 0.00 mm | DDA (P. granulosum PRP-021; P. granulosum PRP-021, 200 μg per disc): 39.53 mm | DDA + salt (P. granulosum PRP-021; P. granulosum PRP-021, 200 μg per disc, sodium chloride 100 mM): 38.60 mm | DDA + lipid (P. granulosum PRP-021; P. granulosum PRP-021, 200 μg per disc, triolein 1% v/v): 42.02 mm | DDA (P. granulosum PRP-043; [6]): 8.94 mm | DDA (P. granulosum PRP-043; P. granulosum PRP-043, 200 μg per disc): 40.16 mm | DDA + salt (P. granulosum PRP-043; P. granulosum PRP-043, 200 μg per disc, sodium chloride 100 mM): 35.80 mm | DDA + lipid (P. granulosum PRP-043; P. granulosum PRP-043, 200 μg per disc, triolein 1% v/v): 35.18 mm | DDA (P. granulosum PRP-044; [7]): 0.00 mm | DDA (P. granulosum PRP-044; P. granulosum PRP-044, 200 μg per disc): 38.29 mm | DDA + salt (P. granulosum PRP-044; P. granulosum PRP-044, 200 μg per disc, sodium chloride 100 mM): 37.67 mm | DDA + lipid (P. granulosum PRP-044; P. granulosum PRP-044, 200 μg per disc, triolein 1% v/v): 35.49 mm | DDA (P. granulosum PRP-055; [8]): 10.07 mm | DDA (P. granulosum PRP-055; P. granulosum PRP-055, 200 μg per disc): 40.16 mm | DDA + salt (P. granulosum PRP-055; P. granulosum PRP-055, 200 μg per disc, sodium chloride 100 mM): 38.29 mm | DDA + lipid (P. granulosum PRP-055; P. granulosum PRP-055, 200 μg per disc, triolein 1% v/v): 36.42 mm | SDDA area increase (C. striatum NCTC 764): 70.79% | SDDA increase (C. striatum NCTC 764): 6.0 mm | SDDA with TCC (C. striatum NCTC 764; [9]): 25.57 mm | DDA (C. striatum NCTC 764): 19.57 mm | SDDA area increase (C. jeikeium NCTC 11915): ∞ | SDDA increase (C. jeikeium NCTC 11915): 13.81 mm | SDDA with TCC (C. jeikeium NCTC 11915; [9]): 13.81 mm | DDA (C. jeikeium NCTC 11915): 0.0 mm

O=C(Nc1ccc(Cl)cc1)Nc1ccc(Cl)c(Cl)c1 [TCC, N-(4-chlorophenyl)-N′-(3,4-dichlorophenyl) urea]
MBC (P. acnes NCTC 737; Cutibacterium acnes, NCTC737, read-out: MBC): 31.2 µg/mL (≈ 99 µM) | DDA (P. granulosum NCTC 11865; [1]): 17.78 mm | DDA (P. granulosum PRP-005; [2]): 12.13 mm | DDA (P. granulosum PRP-006; [3]): 10.17 mm | DDA (P. granulosum PRP-019; [4]): 0.00 mm | DDA (P. granulosum PRP-021; [5]): 0.00 mm | DDA (P. granulosum PRP-043; [6]): 8.84 mm | DDA (P. granulosum PRP-044; [7]): 0.00 mm | DDA (P. granulosum PRP-055; [8]): 17.16 mm | DDA (C. striatum NCTC 764): 14.08 mm | DDA (C. jeikeium NCTC 11915): 0.0 mm
